This note sets out measurements from patent US8110582B2, “Prophylactic treatment of UV-induced epidermal neoplasia” (3M Innovative Properties Company, priority 2003, dated 2012).

Each structure is given as a SMILES string.

The experiment concerns UV-induced squamous cell carcinoma (SCC), actinic keratosis (AK), or pre-AK lesions. Put plainly: UV-induced epidermal neoplasia in SKH-1 mice, Example 4 (simultaneous initiation, 17 weeks). It counts as in vivo. Particulars: 0.1% formulation, twice per week; for Avg. Disease Score: UV 17 weeks, every SCC, AK and pre-AK lesion scored 1; for % Disease / Diseased (number of mice): UV five days per week for 17 weeks. The source says: Female SKH-1 mice 9-10 weeks old were obtained from Charles River (Raleigh, N.C.) and housed in a room with controlled temperatures and humidity and alternating 12-hour light and dark cycles. The room is lit with fluorescent lights covered by yellow sleeves from EncapSulite International, Inc. (Rosenberg, Tex.) to eliminate all ambient UV radiation. The mice were fed with a 12% Corn Oil Purified Diet from Purina Test Diet (Richmond, Va.) and water, ad libitum. The animals were maintained in facilities approved by the Association for the Assessment and Accreditation of Laboratory Animal Care International and in accordance with current United States Department of Agriculture, Department of Health and Human Services, and National Institutes of Health regulations and standards.
A small group of mice were not exposed to UV and were used as negative controls. The other mice were chronically UV irradiated. After randomization the mice were lightly anesthetized with halothane and adjustable collars made of hook and loop fastener approximately 10 mm wide and 70 mm long were placed around the mouse's neck to prevent oral ingestion of the IRM. Unless otherwise indicated, thirty minutes before UV exposure mice were topically dosed with 30 μL of either (1) vehicle formulation, (2) IRM formulation, or (3) an SPF 30 sunscreen (NEUTROGENA SPF30 Sunblock with PARSOL 1789), two times per week for a total of 15-18 weeks on the dorsal surface in an area approximately 6 cm^2. Approximately four hours after dosing, the topical treatment (i.e, vehicle formulation; IRM formulation, or sunscreen) was washed off using a dilute soap solution.
Mice were placed in a standard plexiglass rat cage, 9-10 at a time, that was separated into 12 individual compartments with plexiglass dividers and placed on a shelf 14 inches below the light source without wire cage tops. The mice were exposed to UV radiation 5 times per week (Monday thru Friday) for an average of 15-18 weeks. The UV radiation was provided by a bank of six FS40 lamps (National Biological Corporation, Twinsburg, Ohio), filtered by a Kodacel filter (140 μm thick K6808 cellulose triacetate film; Eastman Kodak, Rochester, N.Y.) that transmits radiation having a wavelength from about 293 nm to about 400 nm. The Kodacel filter was aged 4-6 hours before use. The lights emit UVB (21%) and UVA (79%) light with a peak wavelength of 313 nm, as measured using a radiometer Model PMA 2200 from Solar Light Company (Philadelphia, Pa.) with a PMA 2101 detector for UVB and PMA2110 detector for UVA.
The dose of UVB irradiation was measured by MED (minimal erythemal dose). By using MED, a relatively constant incident dose of UV was maintained over time. The initial dose of UVB to the mice was 12.6 mJ/cm^2 (0.6 MED) and the average total dose of UVB was 3000-5200 mJ/cm^2. An increase of 10-20% of the MED dose per week was needed due to acclimation of the mice.
All mice were distinguished from one another by a tattoo placed on the tail. The development and appearance of tumors were noted weekly and recorded starting at about 14-18 weeks.
UV dosing and IRM dosing were initiated simultaneously. Daily UV dosing was performed five days per week for 17 weeks. IRM dosing was performed twice per week with the compounds indicated in Table 9, each in a 0.1% formulation. SPF dosing was performed five times per week.
An additional group of mice were topically dosed twice per week with 0.1% formulation of a non-IRM control compound: 1,5-dihydro-1-(2-methylpropyl)-4H-imidazo[4,5-c]quinolin-4-one, the synthesis of which is described in U.S. Pat. No. 4,698,348, Example 71, formulated as shown in Table 8. The non-IRM compound is structurally related to, but outside the scope of, IRM compounds as provided above. […] Mice in the non-IRM group were UV dosed five times per week for 18 weeks. […]

Take `Nc1nc2ccccc2c2c1nc1n2CCCC1` [IRM3, 8,9,10,11-tetrahydropyrido[1′,2′:1,2]imidazo[4,5-c]quinolin-6-amine]: the “Avg. Disease Score” value is listed as 1.00 ± 0.54, the “% Disease” value is on record as 30% and the “Diseased (number of mice)” value stood at 3.

Consider `CCOCc1nc2c(N)nc3ccccc3c2n1CC(C)(C)NC(=O)C1CCCCC1` [IRM4, N-{2-[4-amino-2-(ethoxymethyl)-1H-imidazo[4,5-c]quinolin-1-yl]-1,1-dimethylethyl}cyclohexanecarboxamide], for which the “Avg. Disease Score” value is recorded as 0.67 ± 0.67, the “% Disease” value amounted to 11% and the “Diseased (number of mice)” value amounted to 1.

Take `CCc1nc2c(N)nc3ccccc3c2n1CCCCNC(=O)C(C)C` [IRM5, N-[4-(4-amino-2-ethyl-1H-imidazo[4,5-c]quinolin-1-yl)butyl]-2-methylpropanamide]: the “Avg. Disease Score” value turned out to be 5.40 ± 1.91, the “% Disease” value turned out to be 60% and the “Diseased (number of mice)” value is reported as 6.

With `CCCc1nc2c(N)nc3ccccc3c2n1CC(C)(C)NS(C)(=O)=O` [IRM6, N-[2-(4-amino-2-propyl-1H-imidazo[4,5-c]quinolin-1-yl)-1,1-dimethylethyl]methanesulfonamide], the “Avg. Disease Score” value is listed as 0.38 ± 0.38, the “% Disease” value stood at 13% and the “Diseased (number of mice)” value came out at 1.

Turning to `COCCc1nc2c(N)nc3c(c2n1CC(C)(C)NS(C)(=O)=O)CCCC3` [IRM7, N-{2-[4-amino-2-(2-methoxyethyl)-6,7,8,9-tetrahydro-1H-imidazo[4,5-c]quinolin-1-yl]-1,1-dimethylethyl}methanesulfonamide], the “Avg. Disease Score” value turned out to be 3.90 ± 1.30, the “% Disease” value turned out to be 60% and the “Diseased (number of mice)” value is listed as 6.

Regarding `CCCc1nc2c(N)nc3ccccc3c2n1CCCCNC(=O)NC(C)C` [IRM8, N-[4-(4-amino-2-propyl-1H-imidazo[4,5-c]quinolin-1-yl)butyl]-N′-isopropylurea], the “Avg. Disease Score” value is recorded as 3.13 ± 0.89, the “% Disease” value worked out at 75% and the “Diseased (number of mice)” value stood at 6.

Regarding `CCOCc1nc2c(N)nc(C)c(C)c2n1CC(C)(C)NC(=O)NC1CCCCC1` [IRM9, N-{2-[4-amino-2-(ethoxymethyl)-6,7-dimethyl-1H-imidazo[4,5-c]pyridin-1-yl]-1,1-dimethylethyl}-N′-cyclohexylurea], the “Avg. Disease Score” value was 2.00 ± 0.89, the “% Disease” value turned out to be 60% and the “Diseased (number of mice)” value is recorded as 3.

On to `Nc1nc2ccccc2c2c1ncn2CCOCCCc1cccnc1` [IRM10, 1-{2-[3-(3-pyridyl)propoxy]ethyl}-1H-imidazo[4,5-c]quinolin-4-amine], for which the “Avg. Disease Score” value is given as 2.50 ± 1.07, the “% Disease” value is on record as 70% and the “Diseased (number of mice)” value was 7.

As for `CCCCc1nc2c(N)nc3ccccc3c2n1CCCS(C)(=O)=O` [IRM11, 2-butyl-1-[3-(methylsulfonyl)propyl]-1H-imidazo[4,5-c]quinolin-4-amine], the “Avg. Disease Score” value worked out at 0.70 ± 0.47, the “% Disease” value is 20% and the “Diseased (number of mice)” value was 2.

Regarding `CCCCc1nc2c(N)nc3ccccc3c2n1CCS(=O)(=O)CCC` [IRM12, 2-butyl-1-[2-(propylsulfonyl)ethyl]-1H-imidazo[4,5-c]quinolin-4-amine], the “Avg. Disease Score” value was determined as 0.00 ± 0.00, the “% Disease” value came out at 0% and the “Diseased (number of mice)” value is reported as 0.

Take `CCOCc1nc2c(N)nc3ccccc3c2n1NC(C)C` [IRM13, 2-ethoxymethyl-N^1-isopropyl-1H-imidazo[4,5-c]quinoline-1,4-diamine]: the “Avg. Disease Score” value came to 3.33 ± 1.54, the “% Disease” value is 67% and the “Diseased (number of mice)” value amounted to 4.
